{
  "source": "patent US8653023B1",
  "about": "“Dual beneficial effect of dopamine enhancing and neuroprotective actions of PKC delta inhibitors for treatment of Parkinson's disease” (Iowa State University Research Foundation, Inc., priority 2006, dated 2014)",
  "key": {"PKCδ": {"target": "T1, PKCδ (Mus musculus, UniProt P28867)", "T1 construct": "PKCδ was immunoprecipitated from SN lysates of both rottlerin-mice and vehicle-mice using PKCδ specific polyclonal antibody; from tissue; host or cells: substantia nigra of C57 black mice", "test": "PKCδ immunoprecipitation kinase assay on substantia nigra of rottlerin-treated mice", "type": "in vivo", "details": "5 days", "description": "Rottlerin was dissolved in 1% dimethyl sulfoxide (DMSO) and was administered intraperitoneally at various doses. An equal volume of DMSO was given to controls.\nPKCδ enzymatic activity was assayed using an immunoprecipitation kinase assay as described by Reyland et al. (Reyland, Anderson et al. 1999). Briefly, after treatment with rottlerin, substantia nigra brain tissue were washed once with PBS and resuspended in 1 ml of PKC lysis buffer (25 mM HEPES, pH 7.5, 20 mM β-glycerophosphate, 0.1 mM sodium orthovanadate, 0.1% Triton X-100, 0.3 M NaCl, 1.5 mM MgCl2, 0.2 mM EDTA, 0.5 mM DTT, 10 mM NaF, and 4 μg/ml each aprotonin and leupeptin). The lysates were allowed to sit on ice for 30 min and centrifuged at 13,000×g for 5 min, and the supernatants were collected as cytosolic fraction. Protein concentration was determined using a Bradford assay. Cytosolic protein (0.25-0.5 mg) was immunoprecipitated overnight at 4° C. using 2 μg of anti-PKCδ antibody. The immunoprecipitates were then incubated with Protein-A Sepharose (Sigma) for 1 hr at 4° C. The protein A bound antigen-antibody complexes were then washed three times with PKC lysis buffer, three times with 2× kinase buffer (40 mM Tris, pH 7.4, 20 mM MgCl2, 20 μM ATP, and 2.5 mM CaCl2), and resuspended in 20 μl of 2× kinase buffer. Reaction was started by adding 20 μl of reaction buffer containing 0.4 mg Histone H1, 50 μg/ml phosphatidylserine, 4.1 μM dioleoylglycerol, and 5 μCi of [γ-^32P] ATP (3000 Ci/mM) to the immunoprecipitated samples and incubated for 10 min at 30° C. SDS gel-loading buffer (2×) was added to terminate the reaction, the samples were boiled for 5 min, and the products were separated on a 12.5% SDS-PAGE gel. The H1 phosphorylated bands were detected using a Personal Molecular Imager (FX model; Bio-Rad), and quantification was done using Quantity One 4.2.0 software."}, "[1]": {"tested_on": "tyrosine hydroxylase (TH)", "test": "TH activity (DOPA levels after NSD-1015) in PC12 cells", "type": "cell-based", "details": "2 mM NSD-1015", "experimental": "PC12 cells, differentiated N27 dopaminergic cells and primary mesencephalic neurons were exposed to 1-10 μM rottlerin for the duration of the experiment. DMSO (0.01%) was used as vehicle control. PKCδ-DN- and Lac Z-expressing N27 cells were only treated with 0.01% DMSO. […] Untreated or vehicle treated cells were used as control samples."}, "[2]": {"tested_on": "tyrosine hydroxylase (TH)", "test": "TH activity (DOPA levels after NSD-1015) in N27 cells", "type": "cell-based, rat", "details": "2 mM NSD-1015, rottlerin 3 hr vs DMSO, PKCδ-DN vs LacZ", "experimental": "Plasmid pPKCδ^K376R-V5 encodes the loss of function PKCδ-V5 epitope tagged mutant protein; K376R refers to the mutation of the lysine residue at position 376 to arginine in the catalytic site resulting in inactivation of the kinase. Plasmid pLacZ-V5 encodes the β-galactosidase protein alone with a V5-epitope and is used as a vector control. N27 cells stably expressing PKCδ^K376R-V5 (herein referred to as PKCδ-DN cells) and LacZ alone-expressing cells (LacZ cells) were cultured as described previously (Kitazawa et al., 2005). PKCδ-DN or LacZ expressing N27 cells were identified by immunostaining of the C-terminal V5 epitope on expressed proteins and were differentiated with cAMP analogs (e.g. dibutyral cAMP) prior to experiments. PKCδ-DN and LacZ were also transiently expressed in mouse primary mesencephalic neurons using an AMAXA® Nucleofector™ kit (AMAXA GmbH, Germany). As described above, primary mesencephalic neurons were prepared from the midbrain of 16-18-day-old mice embryos. After digestion with trypsin-EDTA-HBSS, the primary neurons were homogenously resuspended with transfection buffer provided with the kit to a final concentration of 4-5×10^6 neurons/100 μl and mixed with 1 μg plasmid DNA encoding either PKCδ-DN-V5 or LacZ-V5. […] Transfection efficiency was >75% as determined by immunostaining of V5-expression. […]"}, "[3]": {"tested_on": "tyrosine hydroxylase (TH)", "test": "TH-ser40 phosphorylation in primary mesencephalic neurons (immunofluorescence)", "type": "cell-based, mouse", "details": "PKCδ (+/+) primary neuronal cultures, 3 μM rottlerin for 3 hr", "experimental": "PC12 and N27 cells were cultured as described earlier (Anantharam et al., 2002; Kaul et al., 2003). Briefly, cells were grown in RPMI 1640 medium containing 10% fetal bovine serum, 2 mM L-glutamine, 50 units of penicillin, and 50 μg/ml streptomycin. Cells were maintained in a humidified atmosphere of 5% CO2 at 37° C. N27 cells were differentiated with 2 mM dibutyryl cAMP for 3-5 days and then used for experiments described below. Primary mesencephalic neuronal cultures were prepared from the ventral mesencephalon of gestational 16-18-day-old mice embryos as described previously (Yang et al., 2004). Mesencephalic tissues were dissected and maintained in ice-cold Ca^2+-free HESS and then dissociated in HBSS solution containing trypsin-EDTA (0.25%) for 20 min at 37° C. The dissociated cells were then plated at equal density (0.5×10^6 cells) in 30-mm-diameter tissue culture wells precoated with poly-L-lysine (1 mg/ml). […]\nPlasmid pPKCδ^K376R-V5 encodes the loss of function PKCδ-V5 epitope tagged mutant protein; K376R refers to the mutation of the lysine residue at position 376 to arginine in the catalytic site resulting in inactivation of the kinase. […] Transfection efficiency was >75% as determined by immunostaining of V5-expression. […]"}, "PKCα or PKCβ": {"tested_on": "PKCα or PKCβ", "details": "cited from earlier work"}, "PKCε, ζ, or η": {"tested_on": "PKCε, ζ, or η", "details": "cited from earlier work"}},
  "data": [
    {"smiles": "CC(=O)c1c(O)c(C)c(O)c(Cc2c(O)c3c(c(C(=O)/C=C/c4ccccc4)c2O)OC(C)(C)C=C3)c1O", "note": "[rottlerin]", "values": [
      {"measurement": "reduction in the kinase activity in SN", "setting": "PKCδ; i.p. injection with 3 mg rottlerin", "value": "more than 30%"},
      {"measurement": "reduction in the kinase activity in SN", "setting": "PKCδ; i.p. injection with 7 mg rottlerin", "value": "more than 30%"},
      {"measurement": "decrease in protein kinase activity in SN (phosphorylated histone H1 bands)", "setting": "PKCδ; orally treated with 10 mg rottlerin", "value": 40, "unit": "%"},
      {"measurement": "decrease in protein kinase activity in SN (phosphorylated histone H1 bands)", "setting": "PKCδ; orally treated with 20 mg rottlerin", "value": 50, "unit": "%"},
      {"measurement": "TH activity", "setting": "[1]; 1 μM rottlerin 3 hr", "value": "2091.09±80.17", "unit": "pg DOPA/10^6 cells/hr"},
      {"measurement": "TH activity", "setting": "[1]; 3 μM rottlerin 3 hr", "value": "3045±75.31", "unit": "pg DOPA/10^6 cells/hr"},
      {"measurement": "TH activity", "setting": "[2]", "value": "3025±266.7", "unit": "pg DOPA/10^6 cells/hr"},
      {"measurement": "TH-ser40 fluorescent intensity, increase", "setting": "[3]", "value": 4, "unit": "fold"},
      {"measurement": "fold more potent on PKCδ than on PKCα or PKCβ", "setting": "PKCα or PKCβ", "value": "5- to 10 fold"},
      {"measurement": "fold more potent on PKCδ than on PKCε, ζ, or η", "setting": "PKCε, ζ, or η", "value": "13- to 33 fold"}
    ]}
  ]
}
